These are literature values, as cited in patent publication US20260028295A1, “COMPOSITIONS THAT CONTAIN SUSPENDED DICYANDIAMIDE, AND RELATED METHODS” (Keystone Specialty Chemicals LLC, priority 2022, published 2026).

The conditions of the data set: 25 degrees Celsius.

For the compound `N#CNC(=N)N` [Dicyandiamide], the solubility in water is 4.13 grams per 100 milliliter.
